Measurements: patent publication US20250186378A1, “COMPOSITION INCLUDING VITAMIN B5 FOR IMPROVING RESPIRATORY HEALTH AND TREATING OR PREVENTING RESPIRATORY DISEASES, PHARMACEUTICAL COMPOSITION INCLUDING THE SAME FOR TREATING OR PREVENTING RESPIRATORY DISEASES, AND HEALTH FUNCTIONAL FOOD COMPOSITION INCLUDING THE SAME FOR IMPROVING RESPIRATORY …” (KT&G CORPORATION, priority 2023, published 2025)

Test system: total cells in bronchoalveolar lavage fluid
Test: Total cell count in bronchoalveolar lavage fluid, PM10D respiratory injury inflammation model
Type: in vivo, Balb/c mice
Settings: vitamin B5 inhaled at 6 mg/kg or more, compared to the induced group and the oral administration group
Protocol: As an experimental animal, Balb/c mice (male, 6 weeks old, body weight of 15 to 17 g) were purchased from Coretech after receiving approval from the Institutional Animal Care and Use Committee (IACUC). After acclimatization for one week in the breeding room of the KT&G Bio-Efficacy Evaluation Center (temperature 23±2° C., humidity 50±10%, 12-hour light/dark cycle), the mice were used in the experiment. A PM10D mixture was prepared by diluting 3 mg/mL of particulate matter 10 (hereinafter PM10) [ERM-CZ120, Sigma Aldrich, St. Louis, MO, USA] and 0.6 mg/mL of diesel particulate matter (hereinafter DEP) [NIST-2975, Sigma Aldrich, St. Louis, MO, USA] in 1% Alum (Aluminium Hydroxide, 239186, Sigma Aldrich, USA). […] The exposure amount of aerosol (mg/L) was calculated as a dose (mg/kg) using a calculation formula based on a prior art (Alexander et al., Inhal Toxicol. 2008 October; 20(13):1179-89.). […] After centrifugation (1500 RPM/4° C./10 min) of the obtained bronchoalveolar lavage fluid, the supernatant was stored in an ultra-low temperature freezer (−70° C.) to measure cytokines, and cells isolated from the bronchoalveolar lavage fluid were treated with ammonium-chloride-potassium buffer (ACK, A10492-01, Gibco, NY, USA) solution for 10 minutes to lyse red blood cells, and then washed again with phosphate buffered saline, and the total cell count was measured using a hematocytometer. […]

## CC(C)(CO)[C@@H](O)C(=O)NCCC(=O)O [vitamin B5, pantothenic acid]
  Total cell count in bronchoalveolar lavage fluid (result in words): reduced
